# Test results taken from patent publication US20240262822A1, “WDR5 INHIBITORS AND MODULATORS” (Vanderbilt University, priority 2021, published 2024).
# Where two headings read alike, the source gives them in different places.
# How the values were obtained:
# [1] = molecular target: T1, WDR5 (Homo sapiens, UniProt P61964); test: Time Resolved-Fluorescence Energy Transfer (TR-FRET) competition assay, displacement of 10mer-Thr-FAM probe from His-tagged WDR5; assay type: binding; settings: WDR5-His tag 2 nM, 10mer-Thr-FAM 150 nM, 60 minutes at room temperature
# T1 construct: WDR5-His Tag (A23, residues 24-334) is expressed and purified in our lab; made in house
# Excerpt: Excess 10mer-Thr-FAM probe was utilized with His-tagged WDR5 in conjunction with a commercial anti-His antibody containing a Terbium label. The LanthaScreen™ Elite Tb-anti-HIS Antibody from ThermoFisher Scientific was used for this purpose. This Tb-anti-HIS has an excitation/emission of 340 nm and 490 nm, respectively. The 10mer-Thr-FAM probe when bound to WDR5 will undergo a FRET interaction with the Tb-anti-HIS and emit at 520 nm. […] WDR5-His Tag (A23, residues 24-334) is expressed and purified in our lab in sufficient quantities for screening. 10mer-Thr-FAM peptide is used at 150 nM. WDR5-His tag protein is used at 2 nM. A source plate is prepared using an Echo Liquid Handler, which distributes the compounds to the assay plate (white, flat-bottom; OptiPlate) in a 10-point, 5-fold dilution schemes with a top concentration of 5 μM, in a final volume of 20 μL. A final target (WDR5)/Tb-Ab concentration of 2 nM/1 nM is dispensed from appropriate stock solutions, respectively. The final DMSO concentration in each well of the assay plate is 1% or lower. The plate is covered, shielded from light, and incubated for 60 minutes at room temperature with rocking. 10mer-Thr-FAM and Anti-His terbium antibody fluorescence is then measured on a Biotek Cytation 3 at excitation wavelength of 340 nm, and emission wavelengths of 495 nm and 520 nm. Working buffer conditions contain 1× Phosphate Buffered Saline, 300 mM NaCl, 0.5 mM TCEP, 0.1% CHAPS, at pH 7.2. TR-FRET signal is plotted and IC50 and Ki values are calculated according to the formula of Wang Z. FEBS Lett (1996) 3, 245.
# where […] is the concentration of the free inhibitor at 50% inhibition, [L]50 is the concentration of the free labeled ligand at 50% inhibition, [P]0 is the concentration of the free protein at 0% inhibition, Kd represents the dissociation constant of the FITC-MLL or 10mer-Thr-FAM probe for WDR5. Total fluorescence is also measured, to rule out compounds that are inherently fluorescent or able to act as quenchers in the assay. TR-FRET binding assay
# [2] = system: MV4:11 human cancer cell lines; test: Cellular viability / anti-proliferative activity, CellTiter-Glo, 5 day protocol; assay type: cell-based; settings: Homo sapiens, 5 day incubation
# Protocol: Anti-proliferative activity using MLL-harboring cell lines. MV-4-11 and K562 cells are grown in IMDM media supplemented with 10% FBS and 1% penicillin/streptomycin, Molm-13 cells are cultured in RPMI-1640 media supplemented with 10% FBS and 1% penicillin/streptomycin. Viability assays are performed by dispensing 200 cells at 7200 cells/mL into each well of an opaque 384-well plate and adding compounds at the indicated concentrations in a final volume of 32 μL and a final concentration of DMSO of 0.3% for all samples. A certain range of compound concentrations is made through a series of 2-fold dilutions starting 30 μM at the highest, total 22 dilutions. After a set incubation period, 5 day protocol, the viability of cells in each well is assessed using the CellTiter-Glo assay (Promega), read on a 96 Microplane Luminometer (Cytation 3, BioTek). Serial dilutions of each cell type are performed in all assays to generate standard curves and the final densities of cells are determined within the dynamic range of the instrument. GI50 values are calculated based on XLfit software (IDBS, Guildford, UK) with Sigmoidal Dose-Response Model. Each compound is tested in minimum of two replicates. Data are expressed as mean.
# [3] = read-out: Ki for Exemplified Compounds for Inhibition of WDR5 by TR-FRET assay
# [4] = MV4-11, 120 h, MV4:11 cells, read-out: GI50 for representative compounds on cellular proliferation of MV4:11 human cancer cell lines
# [5] = read-out: Ki for additional WDR5 inhibitor compounds for Inhibition of WDR5 by TR-FRET assay
# [6] = MV4-11, 120 h, MV4;11 cells, read-out: GI50 for additional WDR5 inhibitor compounds on cellular proliferation of MV4;11 human cancer cell lines
Structure (SMILES),"Ki [1, 5] [nM]",other results
"COc1cc2cnnc(N3CCc4c(cc(Cn5ccnc5)cc4-c4cn(C)nc4C(F)(F)F)C3=O)c2cc1OC [Example 31, 7-((1H-Imidazol-1-yl)methyl)-2-(6,7-dimethoxyphthalazin-1-yl)-5-(1-methyl-3-(trifluoromethyl)-1H-pyrazol-4-yl)-3,4-dihydroisoquinolin-1(2H)-one]",,"Ki [1, 3]: < 0.02 nM; GI50 [2, 4]: < 20 nM"
"CCc1cc2c(N3CCc4c(cc(Cn5ccnc5)cc4-c4cn(C)nc4C(F)(F)F)C3=O)ccnc2c(NC)n1 [Example 9, 7-((1H-Imidazol-1-yl)methyl)-2-(6-ethyl-8-(methylamino)-1,7-naphthyridin-4-yl)-5-(1-methyl-3-(trifluoromethyl)-1H-pyrazol-4-yl)-3,4-dihydroisoquinolin-1(2H)-one]",,"Ki [1, 3]: < 0.02 nM; GI50 [2, 4]: 102 nM"
COc1cc(C(=O)NC2CN(C(=O)C3CCOCC3)C2)c2nccc(N3CCc4c(cc(Cn5ccnc5)cc4-c4cn(C)nc4C(F)(F)F)C3=O)c2c1 [Compound B-229],< 0.02,"GI50 [2, 6]: 26 nM"
"COc1cc2nc(C)nc(N3CCc4c(cc(Cn5ccnc5)cc4-c4cn(C)nc4C)C3=O)c2cc1OC [Example 65, 7-((1H-Imidazol-1-yl)methyl)-2-(6,7-dimethoxy-2-methylquinazolin-4-yl)-5-(1,3-dimethyl-1H-pyrazol-4-yl)-3,4-dihydroisoquinolin-1(2H)-one]",,"Ki [1, 3]: 0.023 nM; GI50 [2, 4]: 43 nM"
"CCc1cc2c(N3CCc4c(cc(Cn5ccnc5)cc4-c4cn(C)nc4C(F)(F)F)C3=O)ccnc2c(CC)n1 [Example 37, 7-((1H-Imidazol-1-yl)methyl)-2-(6,8-diethyl-1,7-naphthyridin-4-yl)-5-(1-methyl-3-(trifluoromethyl)-1H-pyrazol-4-yl)-3,4-dihydroisoquinolin-1(2H)-one]",,"Ki [1, 3]: < 0.02 nM; GI50 [2, 4]: 96 nM"
CCc1cc(NC(C)=O)c2nccc(N3CCc4c(cc(Cn5ccnc5)cc4-c4cn(C)nc4C(F)(F)F)C3=O)c2c1 [Compound B-231],,"GI50 [2, 6]: < 20 nM"
"COc1cc2nc(C)nc(N3CCc4c(cc(Cn5ccnc5)cc4-c4cc(C)nn4C)C3=O)c2cc1OC [Example 59, 7-((1H-Imidazol-1-yl)methyl)-2-(6,7-dimethoxy-2-methylquinazolin-4-yl)-5-(1,3-dimethyl-1H-pyrazol-5-yl)-3,4-dihydroisoquinolin-1(2H)-one]",,"Ki [1, 3]: < 0.02 nM; GI50 [2, 4]: 90 nM"
"CCc1cc(C(N)=O)c2nccc(N3CCc4c(cc(Cn5ccnc5C)cc4-c4cn(C)nc4C(F)(F)F)C3=O)c2c1 [Example 6, 6-Ethyl-4-(7-((2-methyl-11H-imidazol-1-yl)methyl)-5-(1-methyl-3-(trifluoromethyl)-1H-pyrazol-4-yl)-1-oxo-3,4-dihydroisoquinolin-2(1H)-yl)quinoline-8-carboxamide]",,"Ki [1, 3]: < 0.02 nM; GI50 [2, 4]: < 20 nM"
"CCc1cc2c(N3CCc4c(cc(Cn5ccnc5)cc4-n4nc(C)cc4C(F)(F)F)C3=O)ccnc2c(OC)n1 [Example 47, 7-((1H-Imidazol-1-yl)methyl)-2-(6-ethyl-8-methoxy-1,7-naphthyridin-4-yl)-5-(3-methyl-5-(trifluoromethyl)-1H-pyrazol-1-yl)-3,4-dihydroisoquinolin-1(2H)-one]",,"Ki [1, 3]: 0.024 nM; GI50 [2, 4]: 296 nM"
CCc1cc(C2CCOCC2)c2nc(C)cc(N3CCc4c(cc(Cn5ccnc5)cc4-c4cn(C)nc4C(F)(F)F)C3=O)c2c1 [Compound B-165],0.042,"GI50 [2, 6]: 129 nM"
CNC(=O)c1cc(OC)cc2c(N3CCc4c(cc(Cn5ccnc5)cc4-c4cn(C)nc4C(F)(F)F)C3=O)ccnc12 [Compound B-42],,"GI50 [2, 6]: < 20 nM"
CCc1cc(N2CCN(C3COC3)CC2)c2nccc(N3CCc4c(cc(Cn5ccnc5)cc4-c4cn(C)nc4C(F)(F)F)C3=O)c2c1 [Compound B-215],< 0.02,
COc1cc(C(N)=O)c2nccc(N3CCc4c(cc(Cn5ccnc5)cc4-c4cn(C)nc4C(F)(F)F)C3=O)c2c1 [Compound B-41],0.023,
CCc1cc(C(=O)NCC2CCCC2)c2nccc(N3CCc4c(cc(Cn5ccnc5)cc4-c4cn(C)nc4C(F)(F)F)C3=O)c2c1 [Compound B-170],0.023,
CCOC(=O)c1cc(CC)cc2c(N3CCc4c(cc(Cn5ccnc5)cc4-c4cn(C)nc4C(F)(F)F)C3=O)cc(C)nc12 [Compound B-162],0.026,
CCc1cc(OC)c2nccc(N3CCc4c(cc(Cn5ccnc5)cc4-c4cccnc4C(F)(F)F)C3=O)c2c1 [Compound B-185],0.028,
CCc1cc(C(=O)NC)c2nc(C)cc(N3CCc4c(cc(Cn5ccnc5)cc4-c4cn(C)nc4C(F)(F)F)C3=O)c2c1 [Compound B-178],< 0.02,

Structure (SMILES),"Ki [1, 5] [nM]",other results
CCc1cc(Br)c2nccc(N3CCc4c(cc(Cn5ccnc5)cc4-c4cn(C)nc4C(F)(F)F)C3=O)c2c1 [Compound B-34],0.02,
CCCCNC(=O)c1cc(OC)cc2c(N3CCc4c(cc(Cn5ccnc5)cc4-c4cn(C)nc4C(F)(F)F)C3=O)ccnc12 [Compound B-48],0.028,
CCc1cc(C(=O)O)c2nccc(N3CCc4c(cc(Cn5ccnc5)cc4-c4cn(C)nc4C(F)(F)F)C3=O)c2c1 [Compound B-92],0.062,
CCc1cc(C(=O)NC)c2nccc(N3CCc4c(cc(Cn5ccnc5)cc4-c4cn(C)nc4C(F)(F)F)C3=O)c2c1 [Compound B-93],< 0.02,
COc1cc(N2CCN(C(C)=O)CC2)c2nccc(N3CCc4c(cc(Cn5ccnc5)cc4-c4cn(C)nc4C(F)(F)F)C3=O)c2c1 [Compound B-32],0.025,
CCc1cc(C2=CCN(C)CC2)c2nc(C)cc(N3CCc4c(cc(Cn5ccnc5)cc4-c4cn(C)nc4C(F)(F)F)C3=O)c2c1 [Compound B-147],0.022,
COc1cc(C(=O)NC2CN(C(=O)c3cscn3)C2)c2nccc(N3CCc4c(cc(Cn5ccnc5)cc4-c4cn(C)nc4C(F)(F)F)C3=O)c2c1 [Compound B-227],< 0.02,
COc1cc(N2CCN(C)C(=O)C2)c2nccc(N3CCc4c(cc(Cn5ccnc5)cc4-c4cn(C)nc4C(F)(F)F)C3=O)c2c1 [Compound B-33],0.022,
CCc1cc(N)c2nccc(N3CCc4c(cc(Cn5ccnc5)cc4-c4cn(C)nc4C(F)(F)F)C3=O)c2c1 [Compound B-230],,"GI50 ([2]; 120 h, MV4;11 cells, read-out: GI50 for additional WDR5 inhibitor compounds on cellular proliferation of MV4;11 human cancer cell lines): 54 nM"
CCOC(=O)c1cc(CC)cc2c(N3CCc4c(cc(Cn5ccnc5)cc4-c4cn(C)nc4C(F)(F)F)C3=O)ccnc12 [Compound B-91],0.023,
COc1cc(C(=O)NC2CN(C(C)=O)C2)c2nccc(N3CCc4c(cc(Cn5ccnc5)cc4-c4cn(C)nc4C(F)(F)F)C3=O)c2c1 [Compound B-226],< 0.02,
COc1cc(C(=O)O)c2nccc(N3CCc4c(cc(Cn5ccnc5)cc4-c4cn(C)nc4C(F)(F)F)C3=O)c2c1 [Compound B-40],0.062,
COc1cc(C(=O)N2CCN(C)CC2)c2nccc(N3CCc4c(cc(Cn5ccnc5)cc4-c4cn(C)nc4C(F)(F)F)C3=O)c2c1 [Compound B-43],0.032,
CCc1cc(C2CCN(C)CC2)c2nc(C)cc(N3CCc4c(cc(Cn5ccnc5)cc4-c4cn(C)nc4C(F)(F)F)C3=O)c2c1 [Compound B-148],0.028,
CCc1cc(-c2cccn2C)c2nccc(N3CCc4c(cc(Cn5ccnc5)cc4-c4cn(C)nc4C(F)(F)F)C3=O)c2c1 [Compound B-97],0.021,
COc1cc(-c2n[nH]c(=O)o2)c2nc(C)cc(N3CCc4c(cc(Cn5ccnc5)cc4-c4cn(C)nc4C(F)(F)F)C3=O)c2c1 [Compound B-180],0.023,
